Test results from patent publication US20140235627A1, “ß2-ADRENOCEPTOR AGONIST FOR IMPROVEMENT OF EXERCISE TOLERANCE” (BOEHRINGER INGELHEIM INTERNATIONAL GMBH, priority 2012, published 2014).

Tests used:
Format in all cases: in vivo, human
patients with COPD [1] = assay: Endurance time during constant work rate cycle ergometry at 75% Wcap (studies 1222.37 and 1222.38); settings: after 6 weeks
From the text: While, the FDA COPD draft guidance for industry notes that—assessment of exercise capacity by treadmill or cycle ergometry combined with lung volume assessment potentially can be a tool to assess efficacy of a drug (Guidance for industry: chronic obstructive pulmonary disease: developing drugs for treatment (draft guidance, November 2007). Rockville: U.S. Department of Health and Human Services, Food and Drug Administration, Center for Drug Evaluation and Research (CDER) (2007)) two studies (1222.37 & 1222.38) were designed to evaluate the effects of olodaterol on improvement of exercise.
(§1) Constant work rate cycle ergometry at 75% Wcap was selected as the exercise modality based on previous experience with other bronchodilators. The primary efficacy endpoint was endurance time, while IC at isotime and the intensity of breathing discomfort at isotime were key secondary endpoints. Isotime was defined as the endurance time of the constant work rate exercise test of shortest duration, which ensured that IC and intensity of breathing discomfort were compared across treatments at the same time of exercise for an individual.
At baseline, the geometric mean exercise endurance time during constant work rate cycle ergometry to symptom limitation at 75% of maximal work capacity was 414 seconds (6 minutes 54 seconds) in study 1222.37 and 374 seconds (6 minutes 14 seconds) in study 1222.38.

patients with COPD [2] = assay: Inspiratory capacity (IC) at isotime during exercise (studies 1222.37 and 1222.38); settings: after 6 weeks
From the text: as §1

patients with COPD [3] = assay: Intensity of breathing discomfort (Borg Scale) at isotime during exercise (studies 1222.37 and 1222.38); settings: after 6 weeks
From the text: as §1

patients with COPD [4] = assay: Rescue medication use (electronic diary) in 48-week pivotal studies; settings: for Reduction in daytime rescue bronchodilator use compared to placebo / Reduction in nighttime rescue bronchodilator use compared to placebo: at 48 weeks
Experimental: Additionally to that rescue medication use was assessed in 48-week pivotal studies using an electronic diary, indicated whether the bronchodilating effects of olodaterol provided sufficient symptomatic benefit to reduce the need for albuterol to control symptoms on a daily and nightly basis.

[5] = study 1222.37, olodaterol 10 μg
[6] = study 1222.38, olodaterol 10 μg
[7] = study 1222.37, olodaterol 5 μg, listed as olodaterol
[8] = study 1222.37, olodaterol 10 μg, listed as olodaterol
[9] = study 1222.38, olodaterol 5 μg, listed as olodaterol
[10] = study 1222.38, olodaterol 10 μg, listed as olodaterol

COc1ccc(CC(C)(C)NC[C@H](O)c2cc(O)cc3c2OCC(=O)N3)cc1 [Olodaterol]
Adjusted Mean Endurance Time, Treatment Mean (SE) (patients with COPD [1]; study 1222.37, olodaterol 5 μg): 421.58 (13.459) Seconds | Endurance time increase compared with placebo (patients with COPD [1]; study 1222.37, olodaterol 5 μg): 14.0% | Adjusted Mean Endurance Time, Treatment Mean (SE) (patients with COPD [1]; [5]): 420.72 (13.602) Seconds | Endurance time increase compared with placebo (patients with COPD [1]; [5]): 13.8% | Adjusted Mean Endurance Time, Treatment Mean (SE) (patients with COPD [1]; study 1222.38, olodaterol 5 μg): 396.31 (13.680) Seconds | Endurance time increase compared with placebo (patients with COPD [1]; study 1222.38, olodaterol 5 μg): 11.8% | Adjusted Mean Endurance Time, Treatment Mean (SE) (patients with COPD [1]; [6]): 391.45 (13.566) Seconds | Endurance time increase compared with placebo (patients with COPD [1]; [6]): 10.5% | Adjusted Mean Inspiratory Capacity at Isotime During Exercise, Treatment mean (SE) (patients with COPD [2]; study 1222.37, olodaterol 5 μg): 2.099 (0.038) L | Inspiratory Capacity at Isotime, Mean (SE) compared to placebo (patients with COPD [2]; study 1222.37, olodaterol 5 μg): 0.182 (0.036) L | Inspiratory Capacity at Isotime, Mean (SE) compared to placebo (patients with COPD [2]; [7]): statistically significant increase | Adjusted Mean Inspiratory Capacity at Isotime During Exercise, Treatment mean (SE) (patients with COPD [2]; [5]): 2.091 (0.038) L | Inspiratory Capacity at Isotime, Mean (SE) compared to placebo (patients with COPD [2]; [5]): 0.174 (0.036) L | Inspiratory Capacity at Isotime, Mean (SE) compared to placebo (patients with COPD [2]; [8]): statistically significant increase | Adjusted Mean Inspiratory Capacity at Isotime During Exercise, Treatment mean (SE) (patients with COPD [2]; study 1222.38, olodaterol 5 μg): 2.246 (0.039) L | Inspiratory Capacity at Isotime, Mean (SE) compared to placebo (patients with COPD [2]; study 1222.38, olodaterol 5 μg): 0.084 (0.035) L | Inspiratory Capacity at Isotime, Mean (SE) compared to placebo (patients with COPD [2]; [9]): statistically significant increase | Adjusted Mean Inspiratory Capacity at Isotime During Exercise, Treatment mean (SE) (patients with COPD [2]; [6]): 2.328 (0.039) L | Inspiratory Capacity at Isotime, Mean (SE) compared to placebo (patients with COPD [2]; [6]): 0.166 (0.034) L | Inspiratory Capacity at Isotime, Mean (SE) compared to placebo (patients with COPD [2]; [10]): statistically significant increase | Intensity of Breathing Discomfort at Isotime During Exercise, Treatment mean (SE) (patients with COPD [3]; study 1222.37, olodaterol 5 μg): 5.104 (0.182) Borg Scale | Intensity of Breathing Discomfort at Isotime, Difference to placebo Mean (SE) (patients with COPD [3]; study 1222.37, olodaterol 5 μg): −0.766 (0.223) Borg Scale | Intensity of Breathing Discomfort at Isotime, Difference to placebo Mean (SE) (patients with COPD [3]; [7]): statistically significant reduction | Intensity of Breathing Discomfort at Isotime During Exercise, Treatment mean (SE) (patients with COPD [3]; [5]): 5.235 (0.185) Borg Scale | Intensity of Breathing Discomfort at Isotime, Difference to placebo Mean (SE) (patients with COPD [3]; [5]): −0.634 (0.225) Borg Scale | Intensity of Breathing Discomfort at Isotime, Difference to placebo Mean (SE) (patients with COPD [3]; [8]): statistically significant reduction | Intensity of Breathing Discomfort at Isotime During Exercise, Treatment mean (SE) (patients with COPD [3]; study 1222.38, olodaterol 5 μg): 5.250 (0.180) Borg Scale | Intensity of Breathing Discomfort at Isotime, Difference to placebo Mean (SE) (patients with COPD [3]; study 1222.38, olodaterol 5 μg): −0.336 (0.214) Borg Scale | Intensity of Breathing Discomfort at Isotime, Difference to placebo Mean (SE) (patients with COPD [3]; [9]): no significant differences | Intensity of Breathing Discomfort at Isotime During Exercise, Treatment mean (SE) (patients with COPD [3]; [6]): 5.520 (0.181) Borg Scale | Intensity of Breathing Discomfort at Isotime, Difference to placebo Mean (SE) (patients with COPD [3]; [6]): −0.066 (0.214) Borg Scale | Intensity of Breathing Discomfort at Isotime, Difference to placebo Mean (SE) (patients with COPD [3]; [10]): no significant differences | Reduction in daytime rescue bronchodilator use compared to placebo (patients with COPD [4]; 1222.11/12, 5 μg): −0.455 units | Reduction in nighttime rescue bronchodilator use compared to placebo (patients with COPD [4]; 1222.11/12, 5 μg): −0.497 units | Reduction in daytime rescue bronchodilator use compared to placebo (patients with COPD [4]; 1222.11/12, 10 μg): −0.574 units | Reduction in nighttime rescue bronchodilator use compared to placebo (patients with COPD [4]; 1222.11/12, 10 μg): −0.775 units | Reduction in daytime rescue bronchodilator use compared to placebo (patients with COPD [4]; 1222.13/14, 5 μg): −0.269 units | Reduction in nighttime rescue bronchodilator use compared to placebo (patients with COPD [4]; 1222.13/14, 5 μg): −0.530 units | Reduction in daytime rescue bronchodilator use compared to placebo (patients with COPD [4]; 1222.13/14, 10 μg): −0.337 units | Reduction in nighttime rescue bronchodilator use compared to placebo (patients with COPD [4]; 1222.13/14, 10 μg): −0.617 units | Reduction in daytime and nighttime rescue medication use relative to twice-daily formoterol (patients with COPD [4]; studies 1222.13, 1222.14, once-daily olodaterol): comparable to twice-daily formoterol
